In patent US9120756B2, “Substituted phenylureas and phenylamides as vanilloid receptor ligands” (Gruenenthal GmbH, priority 2009, dated 2015):

Tests used:
Format in all cases: cell-based
[1] = biological target: rat-species vanilloid receptor 1 (VR1/TRPV1) (Rattus norvegicus (Rat), UniProt O35433); test: FLIPR Ca2+ influx assay on rat dorsal root ganglia cells, capsaicin stimulus (method I); conditions: for Ki: capsaicin (Cap)
Experimental: (§1) The agonistic or antagonistic effect of the substances to be tested on the rat-species vanilloid receptor 1 (VR1/TRPV1) can be determined using the following assay. In this assay, the influx of Ca^2+ through the receptor channel is quantified with the aid of a Ca^2+-sensitive dye (type Fluo-4, Molecular Probes Europe BV, Leiden, the Netherlands) in a fluorescent imaging plate reader (FLIPR, Molecular Devices, Sunnyvale, USA).
Complete medium: 50 ml HAMS F12 nutrient mixture (Gibco Invitrogen GmbH, Karlsruhe, Germany) with
10% by volume of FCS (foetal calf serum, Gibco Invitrogen GmbH, Karlsruhe, Germany, heat-inactivated);
2 mM L-glutamine (Sigma, Munich, Germany);
1% by weight of AA solution (antibiotic/antimyotic solution, PAA, Pasching, Austria) and 25 ng/ml NGF medium (2.5 S, Gibco Invitrogen GmbH, Karlsruhe, Germany)
Cell culture plate: Poly-D-lysine-coated, black 96-well plates having a clear base (96-well black/clear plate, BD Biosciences, Heidelberg, Germany) are additionally coated with laminin (Gibco Invitrogen GmbH, Karlsruhe, Germany), the laminin being diluted with PBS (Ca—Mg-free PBS, Gibco Invitrogen GmbH, Karlsruhe, Germany) to a concentration of 100 μg/ml. Aliquots having a laminin concentration of 100 μg/ml are removed and stored at −20° C. The aliquots are diluted with PBS in a ratio of 1:10 to 10 μg/ml of laminin and respectively 50 μL of the solution are pipetted into a recess in the cell culture plate. The cell culture plates are incubated for at least two hours at 37° C., the excess solution is removed by suction and the recesses are each washed twice with PBS. The coated cell culture plates are stored with excess PBS which is not removed until just before the feeding of the cells.
The vertebral column is removed from decapitated rats and placed immediately into cold HBSS buffer (Hank's buffered saline solution, Gibco Invitrogen GmbH, Karlsruhe, Germany), i.e. buffer located in an ice bath, mixed with 1% by volume (percent by volume) of an AA solution (antibiotic/antimyotic solution, PAA, Pasching, Austria). The vertebral column is cut longitudinally and removed together with fasciae from the vertebral canal. Subsequently, the dorsal root ganglia (DRG) are removed and again stored in cold HBSS buffer mixed with 1% by volume of an AA solution. The DRG, from which all blood remnants and spinal nerves have been removed, are transferred in each case to 500 μL of cold type 2 collagenase (PAA, Pasching, Austria) and incubated for 35 minutes at 37° C. After the addition of 2.5% by volume of trypsin (PAA, Pasching, Austria), incubation is continued for 10 minutes at 37° C. After complete incubation, the enzyme solution is carefully pipetted off and 500 μL of complete medium are added to each of the remaining DRG. […] The contents of each Falcon tube are respectively filtered through a 70 μm Falcon filter element and centrifuged for 10 minutes at 1,200 rpm and RT. The resulting pellet is respectively taken up in 250 μL of complete medium and the cell count is determined.
The number of cells in the suspension is set to 3×10^5 per ml and 150 μL of this suspension are in each case introduced into a recess in the cell culture plates coated as described hereinbefore. […] Subsequently, the cells are loaded with 2 μM of Fluo-4 and 0.01% by volume of Pluronic F127 (Molecular Probes Europe BV, Leiden, the Netherlands) in HBSS buffer (Hank's buffered saline solution, Gibco Invitrogen GmbH, Karlsruhe, Germany) for 30 min at 37° C., washed 3 times with HBSS buffer and after further incubation for 15 minutes at RT used for Ca^2+ measurement in a FLIPR assay. The Ca^2+-dependent fluorescence is in this case measured before and after the addition of substances (λex=488 nm, λem=540 nm). Quantification is carried out by measuring the highest fluorescence intensity (FC, fluorescence counts) over time.
The FLIPR protocol consists of 2 substance additions.

hVR1 [2] = biological target: T1, hVR1 (Homo sapiens (Human), UniProt Q8NER1); test: FLIPR Ca2+ influx assay on CHO K1 cells transfected with the VR1 gene, capsaicin stimulus (method II); set-up: key to Ki (human being) Cap: result in words (NE / AG): AG=agonist; pAG=partial agonist; NE=no effect; conditions: for Ki: capsaicin (Cap), read-out: Ki (human being) [nM] Cap
hVR1 [3] = biological target: T1, hVR1; test: FLIPR assay hVR1, after pH stimulus; set-up: key to IC50 (human being) hVR1 pH: result in words (NE / AG): AG=agonist; pAG=partial agonist; NE=no effect; conditions: for inhibition at 10 µM: read-out: IC50 (human being) hVR1 pH: inhibition (as a percentage) @ 10 μM, inhibition determined at 10 μM; for IC50: read-out: IC50 (human being) hVR1 [nM], pH
Experimental: (§2) In this assay, the influx of Ca^2+ through the channel is quantified with the aid of a Ca^2+-sensitive dye (type Fluo-4, Molecular Probes Europe BV, Leiden, the Netherlands) in a fluorescent imaging plate reader (FLIPR, Molecular Devices, Sunnyvale, USA). Chinese hamster ovary cells (CHO K1 cells, European Collection of Cell Cultures (ECACC) United Kingdom) are stably transfected with the VR1 gene. For functional testing, these cells are plated out on poly-D-lysine-coated black 96-well plates having a clear base (BD Biosciences, Heidelberg, Germany) at a density of 25,000 cells/well. […] Subsequently, the plates are washed three times with HBSS buffer and after further incubation for 15 minutes at RT used for Ca^2+ measurement in a FLIPR assay. […] Quantification is carried out by measuring the highest fluorescence intensity (FC, fluorescence counts) over time. The FLIPR protocol consists of 2 substance additions. […] Desensitising agonists and antagonists led to suppression of the Ca^2+ influx. […] Ki values for the test substances were obtained by conversion by means of the Cheng-Prusoff equation (Cheng, Prusoff; Biochem. Pharmacol. 22, 3099-3108, 1973).

hVR1 [4] = biological target: T1, hVR1; test: FLIPR assay human VR1, 45° C. stimulus; set-up: key to IC50 (human being) 45° C. column: result in words (AG): AG=agonist; pAG=partial agonist; NE=no effect; conditions: for IC50: read-out: IC50 (human being) [nM], 45° C.
Text: as §1, with “the” for “the rat-species”, “(VR1)” for “(VR1/TRPV1)”, “can also” for “can”, “the” for “the receptor”
Chinese hamster ovary cells (CHO K1 cells, European Collection of Cell Cultures (ECACC) United Kingdom) are stably transfected with the VR1 gene. For functional testing, these cells are plated out on poly-D-lysine-coated black 96-well plates having a clear base (BD Biosciences, Heidelberg, Germany) at a density of 25,000 cells/well. The cells are incubated overnight at 37° C. and 5% CO2 in a culture medium (Ham's F12 nutrient mixture, 10% by volume of FCS (foetal calf serum), 18 μg/ml of L-proline). The next day the cells are incubated with Fluo-4 (Fluo-4 2 μM, 0.01% by volume of Pluronic F127, Molecular Probes in HBSS (Hank's buffered saline solution), Gibco Invitrogen GmbH, Karlsruhe, Germany) for 30 minutes at 37° C. Subsequently, the plates are washed three times with HBSS buffer and after further incubation for 15 minutes at RT used for Ca^2+ measurement in a FLIPR assay. The Ca^2+-dependent fluorescence is measured before and after the addition of the substances to be tested (λex wavelength=488 nm, λem=540 nm). Quantification is carried out by measuring the highest fluorescence intensity (FC, fluorescence counts) over time.
The FLIPR protocol consists of 2 substance additions. […]
Desensitising agonists and antagonists led to suppression of the Ca^2+ influx.
Ki values for the test substances were obtained by conversion by means of the Cheng-Prusoff equation (Cheng, Prusoff; Biochem. Pharmacol. 22, 3099-3108, 1973).

hVR1 [5] = biological target: T1, hVR1; test: FLIPR assay human VR1, NADA (N-arachidonoyl dopamine) stimulus; set-up: key: AG=agonist; pAG=partial agonist; NE=no effect
Experimental: as §2

T1 sequence (Q8NER1 whole entry): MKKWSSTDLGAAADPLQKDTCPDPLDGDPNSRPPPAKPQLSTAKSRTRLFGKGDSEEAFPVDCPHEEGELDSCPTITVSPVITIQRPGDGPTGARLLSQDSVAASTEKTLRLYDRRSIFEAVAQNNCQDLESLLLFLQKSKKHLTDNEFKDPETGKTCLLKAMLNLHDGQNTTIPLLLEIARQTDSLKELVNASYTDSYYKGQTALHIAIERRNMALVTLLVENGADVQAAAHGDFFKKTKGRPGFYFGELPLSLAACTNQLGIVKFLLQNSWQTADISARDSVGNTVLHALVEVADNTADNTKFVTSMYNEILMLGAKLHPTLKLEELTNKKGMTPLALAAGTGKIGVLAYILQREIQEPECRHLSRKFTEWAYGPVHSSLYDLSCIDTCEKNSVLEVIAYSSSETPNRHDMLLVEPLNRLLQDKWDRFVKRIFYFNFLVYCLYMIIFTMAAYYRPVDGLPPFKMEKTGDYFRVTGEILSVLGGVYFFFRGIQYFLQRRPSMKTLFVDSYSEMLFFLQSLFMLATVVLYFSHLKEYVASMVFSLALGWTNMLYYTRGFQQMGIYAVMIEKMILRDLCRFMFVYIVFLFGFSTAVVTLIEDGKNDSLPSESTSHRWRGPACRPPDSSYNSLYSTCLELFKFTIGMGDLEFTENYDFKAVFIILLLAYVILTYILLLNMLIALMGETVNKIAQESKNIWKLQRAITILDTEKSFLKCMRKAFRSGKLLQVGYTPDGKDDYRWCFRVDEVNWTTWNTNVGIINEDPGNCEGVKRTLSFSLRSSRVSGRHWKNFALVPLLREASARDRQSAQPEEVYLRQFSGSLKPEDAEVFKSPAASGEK
Chain of rat-species vanilloid receptor 1 (VR1/TRPV1) (O35433 whole entry): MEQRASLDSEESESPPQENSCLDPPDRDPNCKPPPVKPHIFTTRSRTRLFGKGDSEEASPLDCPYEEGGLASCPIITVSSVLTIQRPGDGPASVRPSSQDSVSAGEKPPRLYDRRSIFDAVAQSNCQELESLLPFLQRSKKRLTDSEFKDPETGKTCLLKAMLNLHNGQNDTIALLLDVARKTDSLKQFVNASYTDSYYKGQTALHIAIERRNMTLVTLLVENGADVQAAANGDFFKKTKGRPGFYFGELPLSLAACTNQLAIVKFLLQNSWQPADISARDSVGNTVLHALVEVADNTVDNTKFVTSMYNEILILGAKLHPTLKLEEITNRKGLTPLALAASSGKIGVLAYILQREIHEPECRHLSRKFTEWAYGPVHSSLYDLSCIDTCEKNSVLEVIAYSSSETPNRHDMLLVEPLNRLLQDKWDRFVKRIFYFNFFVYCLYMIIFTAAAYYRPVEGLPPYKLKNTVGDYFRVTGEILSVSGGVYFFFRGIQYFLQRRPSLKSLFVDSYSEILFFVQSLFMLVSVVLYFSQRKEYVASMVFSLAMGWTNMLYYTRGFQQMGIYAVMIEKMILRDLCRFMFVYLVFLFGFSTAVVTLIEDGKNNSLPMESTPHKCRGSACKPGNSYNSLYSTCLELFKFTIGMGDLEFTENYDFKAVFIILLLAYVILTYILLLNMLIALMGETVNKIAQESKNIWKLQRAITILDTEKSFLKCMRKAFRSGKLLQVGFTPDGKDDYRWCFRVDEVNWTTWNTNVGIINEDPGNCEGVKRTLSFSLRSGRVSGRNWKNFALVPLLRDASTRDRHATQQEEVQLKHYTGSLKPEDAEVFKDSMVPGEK

Row | SMILES | Ki (hVR1 [2]) | inhibition at 10 µM (hVR1 [3]) | IC50 (hVR1 [4]) | Ki [1] | IC50 (hVR1 [3]) | also measured
1 | CCCCCCn1nc(C(C)(C)C)cc1CNC(=O)C(C)c1ccc(NS(C)(=O)=O)c(F)c1 (stereo not shown) [Example 5, N-((3-tert-butyl-1-hexyl-1H-pyrazol-5-yl)methyl)-2-(3-fluoro-4-(methylsulphonamido)phenyl)propanamide] | 50.2 nM | 36% | 282 nM |  |  | inhibition at 1 µM ([1]; read-out: Ki (rat) Cap column: inhibition (as a percentage) @ 1 μM, capsaicin, inhibition determined at 1 μM): 76%
2 | CC(C(=O)NCc1cc(C(C)(C)C)nn1-c1cccc(Cl)c1)c1cc(F)c(NS(C)(=O)=O)c(F)c1 (stereo not shown) [Example 29, N-((3-tert-butyl-1-(3-chlorophenyl)-1H-pyrazol-5-yl)methyl)-2-(3,5-difluoro-4-(methylsulphonamido)phenyl)propanamide] | 1.2 nM | 42% |  |  |  | inhibition at 2 µM (hVR1 [4]; read-out: IC50 (human being) 45° C. column: inhibition (as a percentage) @ 2 μM, inhibition determined at 2 μM): 34%
3 | CC(C(=O)NCc1cc(C(C)(C)C)nn1-c1cccc(Cl)c1)c1ccc(S(=O)(=O)N(C)C)c(F)c1 (stereo not shown) [Example 49, N-((3-tert-butyl-1-(3-chlorophenyl)-1H-pyrazol-5-yl)methyl)-2-(4-(N,N-dimethylsulphamoyl)-3-fluorophenyl)propanamide] |  |  |  |  |  | Ki (human being) Cap: result in words (NE / AG) (hVR1 [2]; capsaicin): AG; IC50 (human being) hVR1 pH: result in words (NE / AG) (hVR1 [3]): AG; Ki (human being) NADA column: result in words (AG) (hVR1 [5]): AG; IC50 (human being) 45° C. column: result in words (AG) (hVR1 [4]): AG
4 | CC(C(=O)NCc1cc(C(F)(F)F)nn1-c1cccc(Cl)c1)c1ccc(C(F)(F)F)c(F)c1 (stereo not shown) [Example 141, N-((1-(3-chlorophenyl)-3-(trifluoromethyl)-1H-pyrazol-5-yl)methyl)-2-(3-fluoro-4-(trifluoromethyl)phenyl)propanamide] | 13.6 nM |  |  | 25.5 nM |  | inhibition at 2.5 µM (hVR1 [4]; inhibition determined at 2.5 μM, read-out: IC50 (human being) 45° C. column: inhibition (as a percentage) @ 2.5 μM): 28%

Continued, in another order:

Row | Ki (hVR1 [2]) | inhibition at 10 µM (hVR1 [3]) | IC50 (hVR1 [4]) | Ki [1] | IC50 (hVR1 [3]) | SMILES | also measured
5 | 0.3 nM |  | 27 nM | 1.2 nM | 179 nM | CC(C(=O)NCc1cc(C(F)(F)F)nn1-c1ccc(Cl)cc1)c1ccc(NS(C)(=O)=O)c(F)c1 (stereo not shown) [Example 21, N-((1-(4-chlorophenyl)-3-(trifluoromethyl)-1H-pyrazol-5-yl)methyl)-2-(3-fluoro-4-(methylsulphonamido)phenyl)propanamide] | 
6 | 0.3 nM |  | 16.1 nM | 0.4 nM | 47.1 nM | C[C@H](C(=O)NCc1cc(C(F)(F)F)nn1-c1ccc(Cl)cc1)c1ccc(NS(C)(=O)=O)c(F)c1 [Example 23, (S)-N-((1-(4-chlorophenyl)-3-(trifluoromethyl)-1H-pyrazol-5-yl)methyl)-2-(3-fluoro-4-(methylsulphonamido)phenyl)propanamide] | 
